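Tested at 5 concentrations; 48 h exposure; 96-well plates; endpoints linearly interpolated, else capped at highest concentration. The concentration for 50% growth inhibition is given as GI50.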 The source made the active and inactive calls. Rule as the data show it: active = GI50 up to about 1.1 µM and inactive = higher.
Legend:
Assay in all cases: growth of human tumour cells (NCI), 48 h
786-0 = tested on: 786-0
A498 = tested on: A498
A549 = tested on: A549
ACHN = tested on: ACHN
BT-549 = tested on: BT-549
CAKI-1 = tested on: CAKI-1
CCRF-CEM = tested on: CCRF-CEM
COLO 205 = tested on: COLO 205
DU-145 = tested on: DU-145
EKVX = tested on: EKVX
HCT-116 = tested on: HCT-116
HCT-15 = tested on: HCT-15
HL-60 = tested on: HL-60
HOP-62 = tested on: HOP-62
HOP-92 = tested on: HOP-92
HT-29 = tested on: HT-29
Hs-578T = tested on: Hs-578T
IGROV-1 = tested on: IGROV-1
K562 = tested on: K562
KM12 = tested on: KM12
LOX IMVI = tested on: LOX IMVI
M14 = tested on: M14
MCF7 = tested on: MCF7
MDA-MB-231 = tested on: MDA-MB-231
MDA-MB-435 = tested on: MDA-MB-435
MDA-N = tested on: MDA-N
MOLT-4 = tested on: MOLT-4
Malme-3M = tested on: Malme-3M
NCI-H226 = tested on: NCI-H226
NCI-H23 = tested on: NCI-H23
NCI-H460 = tested on: NCI-H460
NCI-H522 = tested on: NCI-H522
NCI/ADR-RES = tested on: NCI/ADR-RES
OVCAR-3 = tested on: OVCAR-3
OVCAR-4 = tested on: OVCAR-4
OVCAR-5 = tested on: OVCAR-5
OVCAR-8 = tested on: OVCAR-8
PC-3 = tested on: PC-3
RPMI-8226 = tested on: RPMI-8226
RXF 393 = tested on: RXF 393
SF-268 = tested on: SF-268
SF-295 = tested on: SF-295
SF-539 = tested on: SF-539
SK-MEL-28 = tested on: SK-MEL-28
SK-MEL-2 = tested on: SK-MEL-2
SK-MEL-5 = tested on: SK-MEL-5
SK-OV-3 = tested on: SK-OV-3
SN12C = tested on: SN12C
SNB-19 = tested on: SNB-19
SNB-75 = tested on: SNB-75
SR = tested on: SR
SW-620 = tested on: SW-620
T47D = tested on: T47D
TK-10 = tested on: TK-10
U-251 = tested on: U-251
UACC-257 = tested on: UACC-257
UACC-62 = tested on: UACC-62
UO-31 = tested on: UO-31
HCC 2998 = tested on: HCC 2998

## NC(Cc1ccccc1)c1nn[nH]n1 (stereo not given)
786-0
  GI50: > 100 µM (inactive)
A498
  GI50: > 100 µM (inactive)
A549
  GI50: > 100 µM (inactive)
ACHN
  GI50: > 100 µM (inactive)
BT-549
  GI50: > 100 µM (inactive)
CAKI-1
  GI50: > 100 µM (inactive)
CCRF-CEM
  GI50: > 100 µM (inactive)
COLO 205
  GI50: > 100 µM (inactive)
DU-145
  GI50: > 100 µM (inactive)
EKVX
  GI50: > 100 µM (inactive)
HCT-116
  GI50: > 100 µM (inactive)
HCT-15
  GI50: > 100 µM
HL-60
  GI50: > 100 µM (inactive)
HOP-62
  GI50: > 100 µM (inactive)
HOP-92
  GI50: > 100 µM (inactive)
HT-29
  GI50: > 100 µM (inactive)
Hs-578T
  GI50: > 100 µM (inactive)
IGROV-1
  GI50: > 100 µM (inactive)
K562
  GI50: 0.0476 µM (active)
KM12
  GI50: > 100 µM (inactive)
LOX IMVI
  GI50: > 100 µM (inactive)
M14
  GI50: > 100 µM (inactive)
MCF7
  GI50: > 100 µM (inactive)
MDA-MB-231
  GI50: > 100 µM (inactive)
MDA-MB-435
  GI50: > 100 µM (inactive)
MDA-N
  GI50: > 100 µM (inactive)
MOLT-4
  GI50: < 0.01 µM (active)
Malme-3M
  GI50: > 100 µM (inactive)
NCI-H226
  GI50: > 100 µM (inactive)
NCI-H23
  GI50: > 100 µM (inactive)
NCI-H460
  GI50: > 100 µM (inactive)
NCI-H522
  GI50: > 100 µM (inactive)
NCI/ADR-RES
  GI50: > 100 µM (inactive)
OVCAR-3
  GI50: > 100 µM (inactive)
OVCAR-4
  GI50: > 100 µM (inactive)
OVCAR-5
  GI50: > 100 µM (inactive)
OVCAR-8
  GI50: > 100 µM (inactive)
PC-3
  GI50: > 100 µM (inactive)
RPMI-8226
  GI50: > 100 µM (inactive)
RXF 393
  GI50: > 100 µM (inactive)
SF-268
  GI50: > 100 µM (inactive)
SF-295
  GI50: > 100 µM (inactive)
SF-539
  GI50: > 100 µM (inactive)
SK-MEL-28
  GI50: > 100 µM (inactive)
SK-MEL-2
  GI50: > 100 µM (inactive)
SK-MEL-5
  GI50: > 100 µM (inactive)
SK-OV-3
  GI50: > 100 µM (inactive)
SN12C
  GI50: > 100 µM (inactive)
SNB-19
  GI50: > 100 µM (inactive)
SNB-75
  GI50: > 100 µM (inactive)
SR
  GI50: > 100 µM (inactive)
SW-620
  GI50: > 100 µM (inactive)
T47D
  GI50: > 100 µM (inactive)
TK-10
  GI50: > 100 µM (inactive)
U-251
  GI50: > 100 µM (inactive)
UACC-257
  GI50: > 100 µM (inactive)
UACC-62
  GI50: > 100 µM (inactive)
UO-31
  GI50: > 100 µM (inactive)

## O=C(C/C(=N/O)c1cc(-c2ccccc2)no1)c1ccccc1
786-0
  GI50: 22.1 µM (inactive)
A498
  GI50: > 100 µM (inactive)
A549
  GI50: 58.6 µM (inactive)
ACHN
  GI50: 45 µM (inactive)
BT-549
  GI50: 28.7 µM (inactive)
CAKI-1
  GI50: 36.6 µM (inactive)
CCRF-CEM
  GI50: > 100 µM (inactive)
COLO 205
  GI50: > 100 µM (inactive)
DU-145
  GI50: > 100 µM (inactive)
EKVX
  GI50: 33.8 µM (inactive)
HCC 2998
  GI50: > 100 µM (inactive)
HCT-116
  GI50: 20.4 µM (inactive)
HCT-15
  GI50: > 100 µM
HL-60
  GI50: 29 µM (inactive)
HOP-62
  GI50: 23.8 µM (inactive)
HOP-92
  GI50: 22.2 µM (inactive)
HT-29
  GI50: > 100 µM (inactive)
Hs-578T
  GI50: 26.2 µM (inactive)
IGROV-1
  GI50: 30 µM (inactive)
K562
  GI50: 41.3 µM (inactive)
KM12
  GI50: > 100 µM (inactive)
LOX IMVI
  GI50: 36.4 µM (inactive)
M14
  GI50: 85.3 µM (inactive)
MCF7
  GI50: 44.5 µM (inactive)
MDA-MB-231
  GI50: 21.4 µM (inactive)
MDA-MB-435
  GI50: > 100 µM (inactive)
MDA-N
  GI50: > 100 µM (inactive)
MOLT-4
  GI50: 31.8 µM (inactive)
Malme-3M
  GI50: 41.4 µM (inactive)
NCI-H226
  GI50: 20.8 µM (inactive)
NCI-H23
  GI50: 20.9 µM (inactive)
NCI-H460
  GI50: 39.6 µM (inactive)
NCI-H522
  GI50: 18.7 µM (inactive)
NCI/ADR-RES
  GI50: 25.8 µM (inactive)
OVCAR-3
  GI50: 23.2 µM (inactive)
OVCAR-4
  GI50: 26.5 µM (inactive)
OVCAR-5
  GI50: > 100 µM (inactive)
OVCAR-8
  GI50: 21.7 µM (inactive)
PC-3
  GI50: 77.6 µM (inactive)
RPMI-8226
  GI50: > 100 µM (inactive)
RXF 393
  GI50: 19.8 µM (inactive)
SF-268
  GI50: 18.7 µM (inactive)
SF-295
  GI50: 33.7 µM (inactive)
SF-539
  GI50: 19.3 µM (inactive)
SK-MEL-28
  GI50: > 100 µM (inactive)
SK-MEL-2
  GI50: 26.1 µM (inactive)
SK-MEL-5
  GI50: 80.9 µM (inactive)
SK-OV-3
  GI50: 17.1 µM (inactive)
SN12C
  GI50: 38.7 µM (inactive)
SNB-19
  GI50: 26.5 µM (inactive)
SR
  GI50: 13.6 µM (inactive)
T47D
  GI50: 35.8 µM (inactive)
TK-10
  GI50: 35.1 µM (inactive)
U-251
  GI50: 28.6 µM (inactive)
UACC-257
  GI50: 79.8 µM (inactive)
UACC-62
  GI50: 31 µM (inactive)
UO-31
  GI50: 26.4 µM (inactive)

## Cc1nn(C(=O)c2ccccc2O)c2c1C(c1ccc(O)cc1)SC(=N)N2 (stereo not given)
786-0
  GI50: > 2.56 µM (inactive)
A498
  GI50: 3.06 µM (inactive)
A549
  GI50: 1.26 µM (inactive)
ACHN
  GI50: 0.951 µM (active)
BT-549
  GI50: > 10 µM (inactive)
CAKI-1
  GI50: > 2.32 µM (inactive)
CCRF-CEM
  GI50: 1.7 µM (inactive)
COLO 205
  GI50: > 6.93 µM (inactive)
DU-145
  GI50: 1.67 µM (inactive)
EKVX
  GI50: > 4 µM (inactive)
HCC 2998
  GI50: > 8.91 µM (inactive)
HCT-116
  GI50: 1.49 µM (inactive)
HCT-15
  GI50: 1.75 µM
HL-60
  GI50: > 2.03 µM (inactive)
HT-29
  GI50: > 6.9 µM (inactive)
Hs-578T
  GI50: 0.449 µM (active)
IGROV-1
  GI50: 2.08 µM (inactive)
K562
  GI50: 0.955 µM (active)
KM12
  GI50: > 2.15 µM (inactive)
LOX IMVI
  GI50: 1.36 µM (inactive)
M14
  GI50: > 2.86 µM (inactive)
MCF7
  GI50: > 2.36 µM (inactive)
MDA-MB-231
  GI50: > 3.18 µM (inactive)
MDA-MB-435
  GI50: 1.21 µM (inactive)
MDA-N
  GI50: 1.67 µM (inactive)
MOLT-4
  GI50: 1.33 µM (inactive)
Malme-3M
  GI50: 0.601 µM (active)
NCI-H23
  GI50: 1.83 µM (inactive)
NCI-H460
  GI50: 0.359 µM (active)
NCI-H522
  GI50: > 3.29 µM (inactive)
NCI/ADR-RES
  GI50: 2.03 µM (inactive)
OVCAR-3
  GI50: > 2.66 µM (inactive)
OVCAR-4
  GI50: > 2.12 µM (inactive)
OVCAR-5
  GI50: > 6.35 µM (inactive)
OVCAR-8
  GI50: > 2.47 µM (inactive)
PC-3
  GI50: > 3.03 µM (inactive)
RXF 393
  GI50: 1.23 µM (inactive)
SF-268
  GI50: 3.45 µM (inactive)
SF-295
  GI50: 1.26 µM (inactive)
SF-539
  GI50: 1.36 µM (inactive)
SK-MEL-28
  GI50: > 10 µM (inactive)
SK-MEL-2
  GI50: > 2.65 µM (inactive)
SK-MEL-5
  GI50: > 3.08 µM (inactive)
SK-OV-3
  GI50: 2.25 µM (inactive)
SN12C
  GI50: 1.79 µM (inactive)
SNB-19
  GI50: 8.41 µM (inactive)
SNB-75
  GI50: 0.74 µM (active)
SR
  GI50: 1.44 µM (inactive)
SW-620
  GI50: > 6.64 µM (inactive)
T47D
  GI50: 1.23 µM (inactive)
TK-10
  GI50: > 2.52 µM (inactive)
U-251
  GI50: 1.37 µM (inactive)
UACC-257
  GI50: 0.805 µM (active)
UACC-62
  GI50: 0.929 µM (active)
UO-31
  GI50: 7.55 µM (inactive)
